In data set [1] the target is human FKBP12 (Homo sapiens, UniProt P62942). Nature of the data set: biochemical.
The target in data set [2] is Mip of L. pneumophila (Legionella pneumophila subsp. pneumophila, UniProt Q5ZXE0). Nature of the data set: biochemical. Format: biochemical.
For data set [3], the system named is L. pneumophila Corby (WT). Put plainly: microbe, parasite or virus in culture. In kind it is cell-based, Legionella pneumophila. Particulars: for influence on the viability of wild type L. pneumophila: liquic culture; for MIC: Legionella pneumophila, 48 h, read-out: WT MIC, growth in YEB, 10 to 100 μM, 37°C, 2 days.
In data set [4] the test system is Yersinia pseudotuberculosis. Format: cell-based. Particulars: LB medium, data not shown.
In data set [5] the test system is Pseudomonas aeruginosa PA01. Format: cell-based.
For data set [6], the system named is Salmonella enterica subsp. Enterica. In kind it is cell-based.
Data set [7] concerns Klebsiella aerogenes. In kind it is cell-based.
Data set [8] deals with Escherichia coli K12. Format: cell-based.
For data set [9], the system named is Staphylococcus aureus. In kind it is cell-based.
Data set [10] deals with L. pneumophila Corby in differentiated THP-1 macrophages. Format: cell-based, Legionella pneumophila. The note with it: compound added 2 h post infection, cfu/ml 24 h post infection; for concentration at which suppression of bacterial replication in THP-1 cells starts: 12.5 to 100 μM tested; for effect on bacterial replication in THP-1 cells: up to 100 μM.
The subject of data set [11] is THP-1 cells.
In data set [12] the test system is Mip-like protein of Burkholderia pseudomallei (BpML1). Particulars: ref Norville et al., 2011; read-out: IC50-value toward BpML1; cited from earlier work.
Where [13] appears, read: growth in YEB, 10 to 100 μM, 37°C, 2 days.

Each structure is given as a SMILES string. Values after ≈ are worked out from the molar mass of the structure shown.

One may read the IC50 as the concentration needed to halve the response being measured.

Chain of Mip of L. pneumophila (Q5ZXE0 21-233 limits assumed): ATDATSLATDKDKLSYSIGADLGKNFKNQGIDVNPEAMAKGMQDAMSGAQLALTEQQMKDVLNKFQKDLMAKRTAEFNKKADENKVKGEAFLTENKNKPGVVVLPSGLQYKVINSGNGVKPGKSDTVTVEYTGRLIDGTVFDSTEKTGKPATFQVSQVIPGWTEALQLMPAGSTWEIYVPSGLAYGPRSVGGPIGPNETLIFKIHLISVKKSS
Chain of human FKBP12 (P62942 whole entry): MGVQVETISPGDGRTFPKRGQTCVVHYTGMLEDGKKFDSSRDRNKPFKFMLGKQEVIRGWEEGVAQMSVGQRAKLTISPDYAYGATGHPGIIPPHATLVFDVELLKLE

As to `C[C@@H]1CC([C@H](O)CC2CC(=O)N(CC(=O)NC34CC5CC(CC(O)(C5)C3)C4)C(=O)C2)C(=O)[C@@H](C)C1` (some centres unmarked) [MT_30.38], the IC50 came out at 1.2 ± 0.1 µM in data set [1] and 21.8 ± 3.3 µM in data set [2]. Besides, the “WT Inhibition” value in data set [3] (setting [13]) is “- (no inhibition of growth at the highest tested concentration of 100 μM)”. The “influence on the viability of wild type L. pneumophila” value (shortened to “influence on the viability”) in data set [3] (10 to 100 μM) was “no influence”.
With `C[C@@H]1CC([C@H](O)CC2CC(=O)N(CC(=O)NC34CC5CC(CC(C5)C3)C4)C(=O)C2)C(=O)[C@@H](C)C1` (some centres unmarked) [MT_30.8], the IC50 was found to be 0.4 ± 0.04 µM in data set [1] and 8.5 ± 2.1 µM in [2]. The “WT Inhibition” value in data set [3] (setting [13]) was “- (no inhibition of growth at the highest tested concentration of 100 μM)”. The “influence on the viability” value in data set [3] (10 to 100 μM) is “no influence”.
Turning to `CO[C@H]1C[C@@H]2CC[C@@H](C)[C@@](O)(O2)C(=O)C(=O)N2CCCC[C@H]2C(=O)O[C@H]([C@H](C)C[C@@H]2CC[C@@H](O)[C@H](OC)C2)CC(=O)[C@H](C)/C=C(\C)[C@@H](O)[C@@H](OC)C(=O)[C@H](C)C[C@H](C)/C=C/C=C/C=C/1C` [Rapamycin, reference compound], in data set [3], the MIC is no less than 40 µM. Moreover, the “WT MIC” value in data set [3] (setting [13]) was determined as 40 µM.
Turning to `CC1CC(C)C(=O)C(C(O)CC2CC(=O)N(CC(=O)NC34CC5(C)CC(C)(CC(O)(C5)C3)C4)C(=O)C2)C1` (centres unmarked) [MT_30.79], the half-maximal inhibitory concentration (IC50) in data set [1] was found to be 0.22 ± 0.02 µM; in data set [2], 4.9 ± 0.9 µM. Further, the “IC50-value for Mip relative to FKBP12 (fold higher; FKBP12 inhibited x-fold better)” value in data set [2] is given as “about 25 fold”. For the same molecule, the “WT Inhibition” value in data set [3] (setting [13]) was “- (no inhibition of growth at the highest tested concentration of 100 μM)”. For the same molecule, the “influence on the viability” value in data set [3] (10 to 100 μM) is given as “no influence”.
As for `CC1CC(C)C(=O)C(C(O)CC2CC(=O)N(CC(=O)NC34CC5CC(C)(CC(C)(C5)C3)C4)C(=O)C2)C1` (centres unmarked) [MT_30.32], half-maximal inhibition in data set [1] (IC50) required 0.18 ± 0.05 µM. Also, in [2], the IC50 was 1.7 ± 0.2 µM and the “IC50-value for Mip relative to FKBP12 (fold higher; FKBP12 inhibited x-fold better)” value came to 10 fold. In addition, in data set [3], the MIC was no less than 30 µM. Moreover, in data set [4], the “effect on growth of Y. pseudotuberculosis” value is listed as “none of the tested strains were affected in their growth”. Besides, the “effect on growth of P. aeruginosa PA01” value in [5] is “none of the tested strains were affected in their growth”. In data set [6], the “effect on growth of S. enterica subsp. enterica” value is “none of the tested strains were affected in their growth”. The “effect on growth of K. aerogenes” value in data set [7] is recorded as “none of the tested strains were affected in their growth”. Moreover, in [8], the “effect on growth of E. coli K12” value was “none of the tested strains were affected in their growth”. Moreover, in data set [9], the “effect on growth of S. aureus” value is on record as “none of the tested strains were affected in their growth”. Moreover, in data set [10], the “concentration at which suppression of bacterial replication in THP-1 cells starts” value was determined as 50 µM and the “effect on bacterial replication in THP-1 cells” value (shortened to “effect on bacterial replication”) was “effectively suppressed bacterial replication”. For the same molecule, in data set [11], the “cytotoxicity to THP-1 cells” value is “without having cytotoxic side effects”.
In data set [1], `CCC12CC3CC(C1)CC(NC(=O)CN1C(=O)CC(C[C@@H](O)C4C[C@@H](C)C[C@H](C)C4=O)CC1=O)(C3)C2` (some centres unmarked) [MT_30.51] showed an IC50 of 0.19 ± 0.06 µM. In addition, in data set [2], inhibition was half-maximal at 5.6 ± 1.1 µM (IC50) and the “IC50-value for Mip relative to FKBP12 (fold higher; FKBP12 inhibited x-fold better)” value is recorded as “about 25 fold”. Also, the MIC in data set [3] was no less than 30 µM. Further, in data set [10], the “concentration at which suppression of bacterial replication in THP-1 cells starts” value was 50 µM and the “effect on bacterial replication” value is “effectively suppressed bacterial replication”. Also, in data set [11], the “cytotoxicity to THP-1 cells” value is listed as “without having cytotoxic side effects”.
`C[C@@H]1CC([C@H](O)CC2CC(=O)N(CC(=O)NC34CC5CC(CC(C5)C3)C4)C(=O)C2)[C@H](O)[C@@H](C)C1` (some centres unmarked) [MT_30.92]: the values for the IC50 in data set [1] and in data set [2] were 1 ± 0.1 µM and 12.6 ± 1.4 µM, respectively. In addition, the MIC in data set [3] is no less than 30 µM.
As to `CCOC(=O)CN1C(=O)CC(CC(O)C2CC(C)CC(C)C2=O)CC1=O` (centres unmarked) [Cycloheximide-N-ethylethanoate], in data set [12], the IC50 is 6.5 ± 1 µM.
In data set [2], `C[C@@H]1CC([C@H](O)CC2CC(=O)N(CC(=O)NC(C)(C)C)C(=O)C2)C(=O)[C@@H](C)C1` (some centres unmarked) [MT_30.3] gave an IC50 of 33.8 ± 8.6 µM. Further, the “WT Inhibition” value in [3] (setting [13]) is given as “- (no inhibition of growth at the highest tested concentration of 100 μM)”. For the same molecule, the “influence on the viability” value in data set [3] (10 to 100 μM) is reported as “no influence”.
For `C[C@@H]1CC([C@H](O)CC2CC(=O)N(CC(=O)NC34CC5CC(CC(C5)C3)C4)C(=O)C2)[C@@H](O)[C@@H](C)C1` (some centres unmarked) [MT_30.93], the IC50 in [1] is 0.9 ± 0.05 µM; in data set [2], 16.3 ± 2.6 µM. Moreover, the MIC in data set [3] was no less than 30 µM.
`C[C@@H]1CC([C@H](O)CC2CC(=O)N(CC(=O)N(C)C(C)(C)C)C(=O)C2)C(=O)[C@@H](C)C1` (some centres unmarked) [MT_30.9]: inhibition in data set [1] was half-maximal at 36.1 ± 4.1 µM (IC50). Also, in [2], the IC50 turned out to be 31.7 ± 7.4 µM and the “fold less effective than MT_30.32 in the protease coupled PPIase-assay” value is on record as “about 18 fold”. Also, in data set [3], the MIC was found to be 30 µM (≈ 12.3 µg/mL). For the same molecule, the “effect on bacterial replication” value in [10] was “no effect”.

The record behind these values is article PMC4376002 (Frontiers in Bioengineering and Biotechnology, 2015).
